Results reported in patent publication US4780476A, “Azoniaspironortropanol esters as asthma therapeutics and broncholytics” (Madaus GmbH & Co., priority 1985, dated 1988).
Values after ≈ are worked out from the molar mass of the structure shown. Read-outs that look alike come from different tables or passages of the source.

Experiments:
[1] = system: awake guinea pig (cholinergically-induced bronchial cramps); experiment: inhalative provocation with acetyl-β-methylcholine chloride aerosol on awake guinea pigs (broncholytic/protective action); type: in vivo; conditions: for EC50: Cavia porcellus, read-out: EC50, average effective concentration w of acetyl-β-methylcholine chloride (provocation substance) after pre-treatment; for probit analysis reaction % observed: animals reacting with dyspnoea; for probit analysis reaction % calculated: probit regression
Method: animal strain: Pirbright white test substance: trospium chloride (MP 194) (M.W. 428) dosage: 3×10^-7 mole ml^-1 kg^-1 mode of administration: intraperitoneally test substance: dehydrotrospium chloride (WG 71) (M.W. 426) […]
reference substance: atropine hydrochloride (Serva; M.W. 325.8) […]
reference substance: isoproterenol (Fluka; M.W. 247.72) dosage: […]
further substances: acetyl-β-methylcholine chloride (Sigma; M.W. 195.7) mode of administration: 0.5 ml. min^-1 by inhalation.
The guinea pigs intended for an experiment are, after an acclimatization time of at least 8 days, subjected twice to an aerosol of 0.1% acetyl-β-methylcholine chloride solution since, as is known from experience, during the first two inhalative provocations, the animals react with more distinct respiratory disturbances than in the case of the subsequent provocations (adaptation). If, in the case of the two inhalation phases, a nonsensitivity (absence of respiratory disturbances) is observed towards the exposure, these animals are excluded from the actual experiment.
For the purpose of aerosol provocation, the guinea pigs are placed individually in an inhalation chamber (see Section 3.6 hereinafter) in which 0.5 ml. of solution per minute are atomized as droplet aerosol by means of a special nozzle (Rhema, Hofheim, Germany). […] With the help of a stopwatch, there is recorded the time from the commencement of inhalation to the appearance of the asphyctic state; the animals are immediately removed from the inhalation chamber and, as a rule, recover in a very short period of time (recovery of consciousness and normalization of breathing). If, within 180 seconds, no dysponea occurs, the inhalation is discontinued.
One aerosol concentration is tested per test day; the time between the individual aerosol provocations is at least 1 week.
The inhalation chamber is a Plexiglass container specially made for this purpose, the lid of which can be closed in an air-tight manner by means of rubber sealing and grip closure means. The internal measurements of the chamber are 285×190×180 mm., which corresponds to a volume of about 9.75 liters. The special nozzle (Rhema, Hofheim, Germany, order No. 504104) is fixed to a recess on the lid and ensures a uniform supply of the available chamber space with the aerosol. The provocation solution is supplied to the nozzle via an infusion pump (Braun, Melsungen, Germany) (0.5 ml./minute) and there atomized with a superpressure of 180 kPa from an attached pressure gas bottle (artificial air, KW-free). For reasons of safety, the aerosol provocation is carried out under a ventilator.
The EC50, as well as the related confidence interval (p>95%), are determined from the probit regression lines of the percentage values (v. supra) provided with weight coefficients after line adaptation by the "maximum likelihood" method (10 iterations). Furthermore, there is examined the adaptation of the lines to the observed data by means of the chiquadrat test. For the evaluation, a calculation programme is commercially available (Olivetti).

[2] = system: T1, isolated tracheal spirals of the guinea pig (Cavia porcellus); experiment: anticholinergic effectiveness on isolated tracheal spirals (antagonism against acetyl-β-methylcholine chloride); conditions: ratio of maximum agonist effect in presence (EAmB) and absence (EAm) of antagonist
T1 construct: the whole of the trachea is roughly freed beginning from the larynx up to the tracheal bifurcation, removed and transferred; from tissue; host or cells: isolated trachea (spiral strips) of male Pirbright white guinea pigs
T1 sequence (H0W1Z3 1-590): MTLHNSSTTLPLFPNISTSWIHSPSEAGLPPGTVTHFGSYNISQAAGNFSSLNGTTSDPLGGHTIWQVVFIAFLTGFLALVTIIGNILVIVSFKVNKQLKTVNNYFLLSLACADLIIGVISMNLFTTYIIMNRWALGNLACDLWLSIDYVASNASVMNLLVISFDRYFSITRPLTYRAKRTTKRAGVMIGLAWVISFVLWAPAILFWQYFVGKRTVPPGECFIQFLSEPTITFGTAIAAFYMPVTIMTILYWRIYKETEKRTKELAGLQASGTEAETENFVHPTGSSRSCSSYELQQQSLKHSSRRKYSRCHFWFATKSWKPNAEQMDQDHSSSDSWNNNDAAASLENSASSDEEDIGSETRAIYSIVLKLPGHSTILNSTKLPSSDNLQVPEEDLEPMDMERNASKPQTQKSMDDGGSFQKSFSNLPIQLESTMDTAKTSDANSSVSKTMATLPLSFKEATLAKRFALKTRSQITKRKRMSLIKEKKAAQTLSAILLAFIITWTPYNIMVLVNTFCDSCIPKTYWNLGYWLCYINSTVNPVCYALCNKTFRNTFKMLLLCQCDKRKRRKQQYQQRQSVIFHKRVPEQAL
From the text: (§1) A model for this is the measurement of the anticholinergic effectiveness on isolated tracheal spirals of the guinea pig.
(§2) The test substance used was 3α-benziloyloxynortropane-8-spiro-1'-pyrrolidinium chloride (trospium chloride; MP 194), ipratropium bromide being used as comparison substance.
(§3) There is to be determined the anticholinergic effectiveness of MP 194 in comparison with the reference substance ipratropium bromide on the isolated tracheal spirals of the guinea pig.
(§4) 3.1.1. animal species: guinea pig
(§5) 3.1.2. animal strain: Pirbright white
(§6) 3.3.1. test substance (test antagonist) trospium chloride (MP 194) (M.W. 428)
(§7) 3.3.2. reference substance (reference antagonist) ipratropium bromide (Atrovent) (M.W. 412.4)
(§8) 3.3.3.1. acetyl-β-methylcholine chloride (Sigma) (M.W. 195.7)
(§9) The guinea pig is stunned by a blow on the neck. Subsequently, the whole of the trachea is roughly freed beginning from the larynx up to the tracheal bifurcation, removed and transferred to tempered (37° C.) and carbogenized tyrode solution. After surrounding connective tissue has been removed as far as possible, the preparation is cut up spirally by means of fine scissors at an angle of about 45° and separated into two equal sized sections. After weighing, both preparations are provided proximally and distally with a silk thread. One thread serves for fixing the preparation by means of a loop to the bottom of the bath and the other is connected via a hook with the transducer above the bath vessel.
(§10) Subsequently, the preparations, corresponding to the calibration, are prestressed with about 80 mN and equilibrated from 50-100 minutes. During the equilibration phase, the nutrient solution in the bath vessels is renewed in 15 minute intervals. As soon as the resting muscle tonus of the preparation has stabilized, there takes place the cumulative addition of the agonist, whereby the addition of the next highest concentration first takes place when no further increase of contraction is recognisable (plateau). When the maximum contraction height of the preparation is achieved, the cumulative agonist addition is ended and the preparation is rinsed. After a further equilibration phase (v. supra), the cumulative addition of the agonist is repeated but this time in the presence of the test or reference antagonist.
(§11) 3.6.1. The perfusion part consists of an L-shaped organ bath in the hollow space of which (longer limb) runs a double glass spiral through which the nutrient solution is passed into the actual bath vessel (28 ml. content; shorter limb). This bath vessel is divided into two chambers which are, however, connected together by two transverse connections. […] The inlet chambers as well as the feeding glass spirals are tempered from the outside to 37° C. by a separate liquid circulation. This tempering takes place with the help of a "Colora" ultra-thermostat type K (Colora Messtechnik GmbH, Dusseldorf, Germany) which serves as thermostat and pump. In order, in case of need, always to have available ready-for-use nutrient solution, above the organ bath is provided a double-walled storage container in which the nutrient solution is also tempered and carbogenised. This is connected via a glass stopcock and a polypropylene tube with double glass spiral in the interior of the organ bath.
(§12) 3.6.2. The measurement and recording part includes a transducer (Statham-Universal-Zelle UC-2; Hugo Sachs Elektronic KG, Hugstetten, Germany). By means of a hanging-in weight, a force of 40 mN is produced on the transducer which passes as electrical signal via a connecting cable to a bridge amplifier. The amplification is smoothly so regulated that the force provided corresponds to a constant value on the scale or an analogous value on the millimeter paper of the recorder (dependent upon the amplification; see below). After fixing the organ, the preparation is prestressed to the doubled mark, corresponding to 80 mN. […]

[3] = biological target: T2, isolated tracheal spirals of the guinea pig (Cavia porcellus, UniProt H0W1Z3); experiment: as above; conditions: for antagonism against acetyl-β-methylcholine chloride / anticholinergic effectiveness (in words): isolated guinea pig tracheal spirals
T2 construct: the whole of the trachea is roughly freed beginning from the larynx up to the tracheal bifurcation, removed and transferred; from tissue; host or cells: isolated trachea (spiral strips) of male Pirbright white guinea pigs
T2 sequence (H0W1Z3 1-590): as above
From the text: as §1, §2, §3, §4, §5, §6, §7, §8, §9, §10, §11, §12

[4] = acetyl-β-methylcholine chloride w=0.001000, 10 tested (isoproterenol 9), pre-treatment 3×10^-7 mol ml^-1 kg^-1 i.p.
[5] = acetyl-β-methylcholine chloride w=0.001000, pre-treatment 3×10^-7 mol ml^-1 kg^-1 i.p.
[6] = acetyl-β-methylcholine chloride w=0.001780, pre-treatment 3×10^-7 mol ml^-1 kg^-1 i.p.
[7] = acetyl-β-methylcholine chloride w=0.001780, trospium chloride 10 tested, dehydrotrospium chloride 9, atropine 9, isoproterenol 8, pre-treatment 3×10^-7 mol ml^-1 kg^-1 i.p.
[8] = acetyl-β-methylcholine chloride w=0.003160, 10 tested (isoproterenol 9), pre-treatment 3×10^-7 mol ml^-1 kg^-1 i.p.
[9] = acetyl-β-methylcholine chloride w=0.003160, pre-treatment 3×10^-7 mol ml^-1 kg^-1 i.p.
[10] = acetyl-β-methylcholine chloride w=0.005620, 10 tested (isoproterenol 9), pre-treatment 3×10^-7 mol ml^-1 kg^-1 i.p.
[11] = acetyl-β-methylcholine chloride w=0.005620, pre-treatment 3×10^-7 mol ml^-1 kg^-1 i.p.

SMILES	number of animals reacting [1, 4]	probit analysis reaction % observed [1, 5]	probit analysis reaction % calculated [1, 5]	probit analysis reaction % observed [1, 6]	probit analysis reaction % calculated [1, 6]	number of animals reacting [1, 7]	number of animals reacting [1, 8]	probit analysis reaction % observed [1, 9]	probit analysis reaction % calculated [1, 9]	number of animals reacting [1, 10]	probit analysis reaction % observed [1, 11]	probit analysis reaction % calculated [1, 11]	other results
O=C(OC1CC2CCC(C1)[N+]21CC=CC1)C(O)(c1ccccc1)c1ccccc1 (stereo not drawn) [dehydrotrospium chloride, 3α-benziloyloxynortropane-8-spiro-1'-(3'-pyrrolinium)chloride]	3	30.00%	38.74%	66.67%	50.60%	6	6	60.00%	62.35%	7	70.00%	73.08%	broncholytic effectiveness compared with atropine and isoproterenol (in words) ([1]; 15 min after i.p. administration, equimolar dosages): comparable with or superior to the well known parasympatholytics atropine and the β-sympathomimetic isoproterenol; EC50 [1]: 1730 µg/mL; broncholytic effect (in words) ([1]; intraperitoneal, cholinergically-induced bronchial cramps, awake guinea pig): outstanding broncholytic effect
CC(C)NCC(O)c1ccc(O)c(O)c1 (stereo not drawn) [isoproterenol, reference compound]	3	33.33%	36.21%	62.50%	57.88%	5	7	77.78%	77.28%	8	88.89%	90.30%	EC50 ([1]; pre-treatment 3×10^-7 mol ml^-1 kg^-1 i.p., 15 min before inhalation, w of acetyl-β-methylcholine chloride in atomised solution, control animals w=0.000539, higher = more protection): 1450 µg/mL (≈ 6.86 mM)
CC(C)[N+]1(C)C2CCC1CC(OC(=O)C(CO)c1ccccc1)C2 (stereo not drawn) [ipratropium bromide, reference compound]	–	–	–	–	–	–	–	–	–	–	–	–	EAmB/EAm ± s [2]: 1.10 ± 0.24; Kb ([3]; antagonism against acetyl-β-methylcholine chloride, read-out: pA2 ± s (converted)): 0.49 nM; quality of the antagonism (in words) ([3]; comparison of maximum effects in absence and presence of the antagonist): competitive antagonism; antagonism against acetyl-β-methylcholine chloride / anticholinergic effectiveness (in words) [3]: comparable, dosage-dependent antagonism; antagonism against acetyl-β-methylcholine chloride / anticholinergic effectiveness (in words) ([3]; listed as epratropium bromide): dosage dependent antagonism
